Data taken from patent publication US8685970B2, “Quinolines and related analogs as sirtuin modulators” (GlaxoSmithKline, LLC, priority 2008, dated 2014).

target: T1, SIRT1 (Homo sapiens, UniProt Q96EB6); test: Mass spectrometry based SIRT1 deacetylation assay (activation); assay type: biochemical; conditions: 10 nM SIRT1, 0.5 μM peptide substrate, 120 μM βNAD+, 25 min at 25° C.
T1 sequence (Q96EB6 1-747): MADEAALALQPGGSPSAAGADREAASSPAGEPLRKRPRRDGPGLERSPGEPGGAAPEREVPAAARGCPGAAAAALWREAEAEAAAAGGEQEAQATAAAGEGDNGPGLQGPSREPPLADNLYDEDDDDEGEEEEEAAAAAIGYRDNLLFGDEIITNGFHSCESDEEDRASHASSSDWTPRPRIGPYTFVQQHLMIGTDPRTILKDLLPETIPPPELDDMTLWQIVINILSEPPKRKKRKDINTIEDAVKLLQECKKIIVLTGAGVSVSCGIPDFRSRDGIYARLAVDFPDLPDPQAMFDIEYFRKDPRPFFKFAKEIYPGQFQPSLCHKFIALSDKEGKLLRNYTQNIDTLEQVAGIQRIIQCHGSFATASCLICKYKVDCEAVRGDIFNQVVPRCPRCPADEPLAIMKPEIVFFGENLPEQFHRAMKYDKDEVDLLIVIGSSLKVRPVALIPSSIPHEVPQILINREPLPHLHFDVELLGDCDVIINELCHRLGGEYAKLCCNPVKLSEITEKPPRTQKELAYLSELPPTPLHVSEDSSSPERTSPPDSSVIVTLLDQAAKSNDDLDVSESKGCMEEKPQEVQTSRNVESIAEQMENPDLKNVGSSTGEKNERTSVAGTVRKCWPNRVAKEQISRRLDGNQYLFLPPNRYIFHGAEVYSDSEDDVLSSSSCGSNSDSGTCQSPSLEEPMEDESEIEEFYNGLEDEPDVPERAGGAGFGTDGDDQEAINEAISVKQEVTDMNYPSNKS
Description: A mass spectrometry based assay was used to identify modulators of SIRT1 activity. The mass spectrometry based assay utilizes a peptide having 20 amino acid residues as follows: Ac-EE-K (biotin)-GQSTSSHSK (Ac)N1eSTEG-K(5TMR)-EE-NH2 (SEQ ID NO: 1) wherein K(Ac) is an acetylated lysine residue and Nle is a norleucine. The peptide is labeled with the fluorophore 5TMR (excitation 540 nm/emission 580 nm) at the C-terminus. The sequence of the peptide substrate is based on p53 with several modifications. In addition, the methionine residue naturally present in the sequence was replaced with the norleucine because the methionine may be susceptible to oxidation during synthesis and purification.
The mass spectrometry assay is conducted as follows: 0.5 μM peptide substrate and 120 μM βNAD^+ is incubated with 10 nM SIRT1 for 25 minutes at 25° C. in a reaction buffer (50 mM Tris-acetate pH 8, 137 mM NaCl, 2.7 mM KCl, 1 mM MgCl2, 5 mM DTT, 0.05% BSA). Test compounds may be added to the reaction as described above. The SirT1 gene is cloned into a T7-promoter containing vector and transformed into BL21(DE3). After the 25 minute incubation with SIRT1, 10 μL of 10% formic acid is added to stop the reaction. Reactions are sealed and frozen for later mass spec analysis. Determination of the mass of the substrate peptide allows for precise determination of the degree of acetylation (i.e. starting material) as compared to deacetylated peptide (product).
A control for inhibition of sirtuin activity is conducted by adding 1 μL of 500 mM nicotinamide as a negative control at the start of the reaction (e.g., permits determination of maximum sirtuin inhibition). A control for activation of sirtuin activity is conducted using 10 nM of sirtuin protein, with 1 μL of DMSO in place of compound, to determine the amount of deacetylation of the substrate at a given timepoint within the linear range of the assay. This timepoint is the same as that used for test compounds and, within the linear range, the endpoint represents a change in velocity.
For the above assay, SIRT1 protein was expressed and purified as follows. The SirT1 gene was cloned into a T7-promoter containing vector and transformed into BL21(DE3). The protein was expressed by induction with 1 mM IPTG as an N-terminal His-tag fusion protein at 18° C. overnight and harvested at 30,000×g. Cells were lysed with lysozyme in lysis buffer (50 mM Tris-HCl, 2 mM Tris[2-carboxyethyl]phosphine (TCEP), 10 μM ZnCl2, 200 mM NaCl) and further treated with sonication for 10 min for complete lysis. The protein was purified over a Ni-NTA column (Amersham) and fractions containing pure protein were pooled, concentrated and run over a sizing column (Sephadex S200 26/60 global). The peak containing soluble protein was collected and run on an Ion-exchange column (MonoQ). Gradient elution (200 mM-500 mM NaCl) yielded pure protein. This protein was concentrated and dialyzed against dialysis buffer (20 mM Tris-HCl, 2 mM TCEP) overnight. The protein was aliquoted and frozen at −80° C. until further use.
Sirtuin modulating compounds that activated SIRT1 were identified using the assay described above and are shown below in Table 1. The EC1.5 values represent the concentration of test compounds that result in 150% activation of SIRT1. The EC1.5 values for the activating compounds are represented by A (EC1.5<1.0 uM), B (EC1.5 1-25 uM), C (EC1.5>25 uM). The percent maximum fold activation is represented by A (Fold activation >200%) or B (Fold Activation <200%). “NT” indicates the compound was not tested in a particular assay.

Compound	EC1.5 (concentration of test compound that results in 150% activation of SIRT1)	% Fold Act. (percent maximum fold activation)
O=C(Nc1nccs1)c1ccc(F)c2ccc(-c3cccc(C(F)(F)F)c3)nc12 [Compound 66]	C (EC1.5>25 uM)	–
O=C(Nc1cccnc1)c1ccc(F)c2ccc(-c3cccc(C(F)(F)F)c3)nc12 [Compound 67]	A (EC1.5<1.0 uM)	A (Fold activation >200%)
Cc1cc(-c2ccc3cccc(C(=O)Nc4cccnc4)c3n2)no1 [Compound 68]	C (EC1.5>25 uM)	–
Cc1cc(-c2ccc3cccc(C(=O)Nc4nccs4)c3n2)no1 [Compound 69]	C (EC1.5>25 uM)	–
Cc1cc(-c2ccc3cccc(C(=O)Nc4ccncn4)c3n2)no1 [Compound 70]	C (EC1.5>25 uM)	–
O=C(NC1CCNCC1)c1cccc2ccc(-c3cccc(C(F)(F)F)c3)nc12 [Compound 71]	B (EC1.5 1-25 uM)	A (Fold activation >200%)
O=C(N[C@H]1CCNC1)c1cccc2ccc(-c3cccc(C(F)(F)F)c3)nc12 [Compound 72]	C (EC1.5>25 uM)	B (Fold Activation <200%)
Cc1cc(NC(=O)c2cccc3ccc(-c4cccc(C(F)(F)F)c4)nc23)no1 [Compound 73]	B (EC1.5 1-25 uM)	B (Fold Activation <200%)
O=C(Nc1cccc2ccc(-c3cccc(F)c3)nc12)c1cscn1 [Compound 74]	B (EC1.5 1-25 uM)	B (Fold Activation <200%)
O=C(Nc1cccc2ccc(-c3ccccc3F)nc12)c1cscn1 [Compound 75]	B (EC1.5 1-25 uM)	A (Fold activation >200%)
O=C(Nc1cccc2ccc(-c3cccnc3)nc12)c1cscn1 [Compound 76]	A (EC1.5<1.0 uM)	A (Fold activation >200%)
O=C(Nc1cccc2ccc(-c3ccncc3)nc12)c1cscn1 [Compound 77]	A (EC1.5<1.0 uM)	A (Fold activation >200%)
O=C(Nc1cccc2ccc(-c3cc(F)cc(F)c3)nc12)c1cscn1 [Compound 78]	C (EC1.5>25 uM)	–
Cc1cccc(-c2ccc3cccc(NC(=O)c4cscn4)c3n2)c1 [Compound 79]	A (EC1.5<1.0 uM)	B (Fold Activation <200%)
N#Cc1cccc(-c2ccc3cccc(NC(=O)c4cscn4)c3n2)c1 [Compound 80]	C (EC1.5>25 uM)	–
CS(=O)(=O)c1cccc(-c2ccc3cccc(NC(=O)c4cscn4)c3n2)c1 [Compound 81]	A (EC1.5<1.0 uM)	A (Fold activation >200%)
Cc1noc(NC(=O)c2cccc3ccc(-c4cccc(C(F)(F)F)c4)nc23)c1C [Compound 82]	B (EC1.5 1-25 uM)	A (Fold activation >200%)
O=C(Nc1nccs1)c1c(F)ccc2ccc(-c3cccc(C(F)(F)F)c3)nc12 [Compound 83]	B (EC1.5 1-25 uM)	A (Fold activation >200%)
O=C(Nc1nccs1)c1cccc2ccc(-c3ccccc3C(F)(F)F)nc12 [Compound 84]	B (EC1.5 1-25 uM)	A (Fold activation >200%)
O=C(Nc1ccccn1)c1cccc2ccc(-c3ccccc3C(F)(F)F)nc12 [Compound 85]	B (EC1.5 1-25 uM)	B (Fold Activation <200%)
